From patent US20110178072A1, “STEREOSPECIFICITY OF METHYLSULFINYL REDUCTION” (priority 2008, published 2011)

What was measured:
[1] = system: MsrA-knockdown SK-Hep1 cells; test: Growth of MsrA-knockdown SK-Hep1 cells on Met and Met sulfoxide media; format: cell-based, human; settings: 0.1 mM, 96 hours
Protocol: Proliferation Assay—Cell growth was quantified using colorimetric MTS assay (Promega). Cells in regular DMEM medium were plated in 96-well plates at 5×10^3 cells/well, washed with PBS, and specialized DMEM media were added that contained Met, Met-SO, Met-RO, or Met-RSO 24 hours after plating. To assay for cell proliferation, a tetrazolium compound [3-(4,5-dimethylthiazol-2-yl)-5-(3-carboxymethoxyphenyl)-2-(4-sulfophenyl)-2H-tetrazolium, inner salt; MTS] and an electron coupling reagent (phenazine methosulfate; PMS) were mixed according to the manufacturer's protocol and then 20 μL of the mixture were added to 100 μL of phenol red-excluded media that further replaced cell culture media. After 90 minutes of incubation at 37° C. in the atmosphere of 5% CO2, cell proliferation was measured at indicated time periods from 0 to 96 hours at 450 nm in a plate reader. Direct counting of viable cells using 0.2% trypan blue was done in 6-well plates. Knockdown of MsrA in SK-Hep1 cells by siRNA—Double stranded siRNAs (Dharmacon) for targeting human MsrA mRNA were used to knockdown this gene in SK-Hep1 cells. Cells were transfected with siRNA by using DharmaFECT™ Transfection Reagent (Dharmacon) according to the manufacturer's protocol. Proliferation of these cells was assayed 60 hours after transfection in comparison with control transfected cells.

CBS = test: Western blot analysis of CBS in SK-Hep1 cells grown on Met and Met sulfoxide media; format: cell-based, human; settings: SK-Hep1 cells, 0.1 mM
Protocol: Analysis of SK-Hep1 and fRMsr-transfected SK-Hep1 cells—SK-Hep1 and fRMsr-transfected SK-Hep1 cells were plated in 6-well plates at 7.5×10^4 cells/well in regular DMEM medium. The medium was changed to Met-free DMEM supplemented with either Met or individual Met sulfoxides at 24 hours after plating. Cells were then collected every 24 hours until 96 hours. Protein concentration was measured by the Bradford assay and the samples were probed by standard immunoblot assays with polyclonal MsrA (kindly provided by Bertrand Friguet), cystathionine beta synthase (CBS) (kindly provided by Ruma Banerjee), and activating transcription factor 3 (ATF3) (Santa Cruz Biotechnology) antibodies.

SK-Hep1 cells = test: Growth and morphology of SK-Hep1 cells in Met-free DMEM supplemented with Met or Met sulfoxides (MTS proliferation assay, microscopy); format: cell-based, human; settings: Met-free DMEM supplemented with 0.1 mM of the compound
Protocol: Cell culture—SK-Hep1 (ATCC: HTB-52™) and fRMsr-transfected SK-Hep1 cells were cultured in DMEM or Met-free DMEM (GIBCO) media, supplemented with 0.1 mM Met, 0.1 mM Met-RO, 0.1 mM Met-SO, or 0.1 mM Met-RSO. […] Thus, 0.1 mM Met sulfoxides were used in the experiments described below. Cell culture experiments, with the exception of a proliferation assay, were carried out in 6-well plates, and cells were maintained at 37° C. in a 5% CO2 atmosphere. Proliferation Assay—Cell growth was quantified using colorimetric MTS assay (Promega). Cells in regular DMEM medium were plated in 96-well plates at 5×10^3 cells/well, washed with PBS, and specialized DMEM media were added that contained Met, Met-SO, Met-RO, or Met-RSO 24 hours after plating. To assay for cell proliferation, a tetrazolium compound [3-(4,5-dimethylthiazol-2-yl)-5-(3-carboxymethoxyphenyl)-2-(4-sulfophenyl)-2H-tetrazolium, inner salt; MTS] and an electron coupling reagent (phenazine methosulfate; PMS) were mixed according to the manufacturer's protocol and then 20 μL of the mixture were added to 100 μL of phenol red-excluded media that further replaced cell culture media. After 90 minutes of incubation at 37° C. in the atmosphere of 5% CO2, cell proliferation was measured at indicated time periods from 0 to 96 hours at 450 nm in a plate reader. Direct counting of viable cells using 0.2% trypan blue was done in 6-well plates. Microscopy—A Nikon TE-300 Widefield Microscope was used to prepare images of SK-Hep1 cells grown on different Met and Met sulfoxide media. Microscopy analyses were carried out in the University of Nebraska Microscopy Core Facility.

selenoproteins = test: 75Se metabolic labeling of SK-Hep1 cells grown on Met and Met sulfoxide media; format: cell-based, human; settings: 0.1 mM of each amino acid
Protocol: ^75 Se Metabolic labeling—SK-Hep1 cells were plated in 6-well plates at 7.5×10^4 cells/well in 1.5 mL of regular DMEM medium. After 24 hours, cells were washed with PBS and the medium was changed to modified DMEM media containing Met, Met-SO, Met-RO, or Met-RSO (0.1 mM of each amino acid). 0.01 mCi of freshly neutralized [^75Se]selenious acid (specific activity 1,000 Ci/mmol, University of Missouri Research Reactor) was added in each well at 48 hours after changing the medium and cells were incubated at 37° C. for 24 hours in 5% CO2 atmosphere, followed by harvesting the cells. Cell extracts (30 μg of total protein) were electrophoresed on 10% Bis-Tris gels and transferred onto PVDF membranes (Invitrogen). The ^75Se radioactivity pattern was visualized by using a PhosphorImager (GE Health Care).

yeast fRMsr = target: T1, yeast fRMsr (Saccharomyces cerevisiae, UniProt P36088); test: Activity assay of purified recombinant yeast fRMsr towards free Met sulfoxides (HPLC, OPA derivatization); format: biochemical, S. cerevisiae; settings: recombinant His-tagged yeast fRMsr
T1 construct: His-tag (C); made in house; host or cells: E. coli BL21 (DE3), pET21b
T1 sequence (P36088 1-180): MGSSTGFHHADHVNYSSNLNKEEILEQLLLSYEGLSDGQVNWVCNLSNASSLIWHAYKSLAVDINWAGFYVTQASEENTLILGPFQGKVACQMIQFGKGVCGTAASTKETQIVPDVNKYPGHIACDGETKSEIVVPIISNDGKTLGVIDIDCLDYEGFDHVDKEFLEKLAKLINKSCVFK
Source text: Cloning and expression of yeast fRMsr—Characterization of S. cerevisiae fRMsr (YKL069W) is described in Le, D. T., et al. (2009) Functional analysis of free methionine-R-sulfoxide reductase from Saccharomyces cerevisiae. J Biol Chem., 284(7), 4354-4364. Briefly, a yeast fRMsr cDNA, which encodes a protein homologous to fRMsr from E. coli, was amplified from S. cerevisiae genomic DNA and subcloned into pET21b vector (Novagen) using primers 5′-AAACATATGATGGGCTCATCAACCGGGTTTC-3′ (sense; SEQ ID NO:1) and 5′-AAGCGGCCGCGACACATGATTTATTAATTAATTTAGCAAG-3′ (antisense; SEQ ID NO:2). After transformation into BL21 (DE3) E. coli, the subcloned sequence was verified by DNA sequencing. Cells with the plasmid in 500 mL LB medium containing 100 μg/mL ampicillin were grown until OD600 reached 0.6-0.8, followed by addition of IPTG to 0.3 mM. Protein expression was at 30° C. for 4 hours, followed by harvesting cells by centrifugation at 4,000 rpm for 5 minutes. Cells were washed with PBS and stored at −70° C. until use.
To purify the protein, a cell pellet was dissolved in resuspension buffer (Tris-HCl, pH 7.5, 15 mM imidazole, 300 mM NaCl), and PMSF was added to a final concentration of 0.5 mM. After sonication, the supernatant was collected by centrifugation at 8,000 rpm for 30 minutes. The supernatant was loaded onto a cobalt Talon resin (Clontech) pre-equilibrated with resuspension buffer. Following washing with the same buffer, the protein was eluted with elution buffer (Tris-HCl, pH 7.5, 300 mM imidazole, 300 mM NaCl). Fractions containing yeast fRMsr were pooled together and dialyzed overnight against PBS in a dialysis cassette (Pierce).
Activity assays of fRMsr—Reaction mixture (40 μL) included 50 mM DTT, 1 mM substrate (Met-RO or Met-SO), and purified enzyme or cell lysate prepared by treatment with CelLytic™M cell lysis reagent (Sigma). 20 μL of the reaction mixture was mixed with 2 μL of TCA and subjected to OPA derivatization as described above and then injected onto the column to measure endogenous Met level in the samples. An additional 20 μL from the same original reaction mixture were incubated at 37° C. for 30 minutes and then subjected to OPA derivatization by the same procedure using TCA. After derivatization of the sample (2-5 μL) by adding OPA solution to 100 μL as a final volume, 50 μL of the mixture were subjected to an HPLC separation as described above.

mouse MsrB2 = mouse MsrB2 (Mus musculus, UniProt Q78J03); test: Reduction of methylsulfinyl compounds by mouse MsrB2 (HPLC/GC analysis); format: biochemical; settings: in the presence of DTT
Chain of mouse MsrB2 (Q78J03 43-175): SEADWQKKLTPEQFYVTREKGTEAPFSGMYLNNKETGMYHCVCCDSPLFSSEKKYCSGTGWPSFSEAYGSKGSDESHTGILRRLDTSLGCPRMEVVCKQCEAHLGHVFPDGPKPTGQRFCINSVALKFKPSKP
Protocol: (§1) The isothiocyanate group in R,S-sulforaphane reacts with sulfhydryls to form conjugated compounds. First, the compound was treated with excess DTT (which has two free sulfhydryl groups) to conjugate the isothiocyanate group of R,S-sulforaphane or S-sulforaphane with the sulfhydryl group of DTT and the resulting adducts were then used as substrates for mouse MsrA and mouse MsrB2. The reduction of the DTT-sulforaphane adduct was analyzed using HPLC analysis of the adduct with buffer (as control; FIG. 12A), mouse MsrB2 (FIG. 12B), and mouse MsrA (FIG. 12C). The arrows indicate the migration of the DTT-erucin adduct. […] FIG. 13 illustrates the HPLC analysis of the DTT-R-sulforaphane adduct incubated with buffer (as control) (FIG. 13A), mouse MsrA (FIG. 13B), and mouse MsrB2 (FIG. 13C). Again, the arrows show the migration of the DTT-erucin adduct.
(§2) Mesoridazine, which has a mild effect on treating schizophrenia, was examined to determine its reduction by yeast fRMsr, mouse MsrB2, and mouse MsrA (FIG. 14). The peak of m/z 387.6 corresponds to the molecular weight of mesoridazine and the peak of m/z 371.6 corresponds to the molecular weight of thioridazine. FIG. 14B details the HPLC analysis of mesoridazine incubated with mouse MsrB2 and DTT. FIG. 14C provides the HPLC analysis of mesoridazine incubated with yeast fRMsr and DTT. FIG. 14D illustrates the specific activities of various Msrs for the reduction of mesoridazine (left to right): mouse MsrA in the presence of DTT as a reductant, mouse MsrA in the presence of the thioredoxin reducing system, mouse MsrB2 in the presence of DTT, and yeast fRMsr in the presence of DTT.
(§3) The reduction of triclabendazole sulfoxide was examined. This compound has been used to treat liver fluke, Fasciola hepatica and Fasciola gigantica, in sheep, goat, and cattle as a form of triclabendazole. Triclabendazole can be metabolized to several different forms including triclabendazole sulfoxide, which is an oxidized form of methylsulfide group, in biological systems. FIG. 15A provides an HPLC analysis of triclabendazole sulfoxide incubated with mouse MsrA and DTT. The peak of m/z 375.2 and 377.2 correspond to the molecular weight of triclabendazole sulfoxide and the peak of m/z 359.2 and 361.2 correspond to the molecular weight of triclabendazole. FIG. 15B illustrates an HPLC analysis of triclabendazole sulfoxide incubated with mouse MsrB2 and DTT. FIG. 15C details an HPLC analysis of triclabendazole sulfoxide incubated with yeast fRMsr and DTT. FIG. 15D illustrates the specific activities of various Msrs for the reduction of triclabendazole sulfoxide (left to right): mouse MsrA in the presence of DTT as a reductant, mouse MsrA in the presence of the thioredoxin reducing system, mouse MsrB2 in the presence of DTT, and yeast fRMsr in the presence of DTT.
Another methylsulfinyl-containing drug, sulmazole, was tested as a substrate for Msrs. This drug is pharmacologically active as a cardiotonic agent and is a phosphodiesterase inhibitor. FIG. 16A details an HPLC analysis of sulmazole incubated with mouse MsrA and DTT. The peak of m/z 288.3 corresponds to the molecular weight of sulmazole and the peak of m/z 272.3 corresponds to the molecular weight of reduced form of sulmazole. FIG. 16B illustrates an HPLC analysis of sulmazole incubated with mouse MsrB2 and DTT. FIG. 16C provides an HPLC analysis of sulmazole incubated with yeast fRMsr and DTT. […]

mouse MsrA = target: T2, mouse MsrA (Mus musculus, UniProt Q9D6Y7); test: Reduction of methylsulfinyl compounds by mouse MsrA (HPLC/GC analysis); format: biochemical; settings: DTT as a reductant
T2 sequence (Q9D6Y7 21-233): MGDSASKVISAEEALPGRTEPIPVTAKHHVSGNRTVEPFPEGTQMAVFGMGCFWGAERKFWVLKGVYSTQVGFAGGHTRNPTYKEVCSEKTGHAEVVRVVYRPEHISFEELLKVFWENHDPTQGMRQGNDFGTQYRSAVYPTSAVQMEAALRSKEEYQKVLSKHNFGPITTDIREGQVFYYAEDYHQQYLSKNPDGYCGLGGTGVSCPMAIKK
Protocol: as §1, §2, §3
Another methylsulfinyl-containing drug, sulmazole, was tested as a substrate for Msrs. This drug is pharmacologically active as a cardiotonic agent and is a phosphodiesterase inhibitor. FIG. 16A details an HPLC analysis of sulmazole incubated with mouse MsrA and DTT. The peak of m/z 288.3 corresponds to the molecular weight of sulmazole and the peak of m/z 272.3 corresponds to the molecular weight of reduced form of sulmazole. FIG. 16B illustrates an HPLC analysis of sulmazole incubated with mouse MsrB2 and DTT. FIG. 16C provides an HPLC analysis of sulmazole incubated with yeast fRMsr and DTT. FIG. 16D details the specific activities of various Msrs for the reduction of sulmazole (left to right): mouse MsrA in the presence of DTT as a reductant, mouse MsrA in the presence of the thioredoxin reducing system, mouse MsrB2 in the presence of DTT, and yeast fRMsr in the presence of DTT.
DMSO, which is used as a preservative for stem cells, solvent for drugs, and a drug itself with anti-inflammatory and free radical scavenging properties, was studied for its reduction by Msrs. FIG. 17A details a GC analysis of DMSO incubated with mouse MsrA and DTT. […]

Row | Structure (SMILES) | Growth of SK-Hep1 cells (SK-Hep1 cells) | Selenoprotein patterns (75Se labeling) (selenoproteins) | Activity of recombinant yeast fRMsr protein towards the substrate (yeast fRMsr) | Reduction by mouse MsrB2 (mouse MsrB2) | Reduction by mouse MsrA (mouse MsrA) | other results
1 | CSCC[C@H](N)C(=O)O [Met, methionine] | grew best | No difference was observed | – | – | – | Growth of MsrA-deficient cells [1]: still supported their growth; Expression of CBS (CBS): maintained stable CBS levels
2 | CN(C)c1ccc(/N=N/c2ccc(S(=O)(=O)N[C@@H](CC[S@@+](C)[O-])C(=O)O)cc2)cc1 [dabsyl-Met-RO] | – | – | inactive | – | – | –
3 | CN(C)c1ccc(N=Nc2ccc(S(=O)(=O)N[C@@H](CC[S@+](C)[O-])C(=O)O)cc2)cc1 [dabsyl-Met-SO] | – | – | inactive | – | – | –
4 | C[S+]([O-])CC[C@H](N)C(=O)O (stereo partly drawn) [Met-RSO, L-Met-R,S-sulfoxide] | could also proliferate | No difference was observed | – | – | – | –
5 | C[S@+]([O-])CCCCNC(=S)SCC(O)C(O)CS (stereo partly drawn) [DTT-S-sulforaphane adduct] | – | – | – | not by mouse MsrB2 | can be reduced | –
6 | C[S@@+]([O-])CCCCNC(=S)SCC(O)C(O)CS (stereo partly drawn) [DTT-R-sulforaphane adduct] | – | – | – | cannot be reduced | cannot be reduced | –
